Assay results published in publication PMC7450046, “Making of water soluble curcumin to potentiate conventional antimicrobials by inducing apoptosis-like phenomena among drug-resistant bacteria” (Scientific Reports, 2020).
In brackets after ≈: the same amount, converted by molar mass. Where two headings read alike, the source gives them in different places.

How the values were obtained:
Klebsiella pneumoniae [1] = experiment: DiSC3-5 flow cytometry, membrane depolarization; details: 256 µg/ml
Method: (§6) The membrane potential-sensitive dye DiSC3-5 was used to measure plasma membrane depolarization in bacterial membranes as described earlier with modifications[44]. The isolates were cultured in BHI broth overnight with subsequent dilution to adjust the absorbance to 0.05 at λmax 600. […] This was further incubated for 20 min with 1 µM DiSC3-5. Negative control was without any drug while native curcumin treated bacterial lane served as positive control. The fluorescence was measured employing Synergy H1 Hybrid Multi-Mode Reader with excitation at 622 nm and emission at 670 nm. Besides, the percentages of bacterial cells showing fluorescence were measured using the flow cytometry (C6 BD Accuri, Becton–Dickinson, San Jose, CA, USA).

MRSA clinical isolate = experiment: DPH steady-state fluorimetry, membrane dynamics; assay type: cell-based, Staphylococcus aureus; details: vancomycin alone; 8 µg/ml sCur with 16 µg/ml vancomycin 60 min; untreated 89.86 ± 2.07
Method: (§1) We utilized the previously described method. Multidrug-resistant clinical isolates of Staphylococcus aureus, Staphylococcus epidermidis, Klebsiella pneumoniae, Escherichia coli, and Pseudomonas aeruginosa were treated with MIC concentration of sCur, vancomycin, and in combination (here data of only Klebsiella pneumoniae is shown). We incubated the treated cells for 120 min with shaking (100 rpm) at 37 °C, with subsequent harvesting. The pellet was re-suspended and re-pelleted. We fixed the pellet with 0.4% paraformaldehyde with subsequent resuspension in PBS. We later on incubated the re-suspended cells with 0.5 mM 1, 6-diphenyl-1, 3, 5-hexatriene (DPH) at 37 °C for 60 min, pelleted and washed thrice with PBS. The fluorescence intensity was monitored spectrophotometrically employing Synergy H1 Hybrid Multi-Mode Reader at 350 nm (excitation) and 425 nm (emission).

[2] = test system: Klebsiella pneumoniae (10,825/2019); experiment: Modified MIC in combination, checkerboard titration; assay type: cell-based
Method: (§2) Serial dilutions of with these antibiotics were mixed in cation-adjusted Muller Hinton broth. The inoculum was prepared from the overnight grown colonies on MHA. The final bacterial concentration after inoculation was […].

[3] = test system: Pseudomonas aeruginosa (2,412/2019); experiment: as above; assay type: cell-based
Method: as §2

[4] = test system: Escherichia coli (507/2019); experiment: as above; assay type: cell-based
Method: as §2

[5] = test system: Gram-positive and Gram-negative MDR isolates; experiment: MIC, broth micro-dilution, summary for MDR isolates; assay type: cell-based
Method: (§3) The minimum inhibitory concentration of sCur was determined by the broth microdilution method as described earlier with minor modifications.
(§4) Briefly, Staphylococcus aureus, Staphylococcus epidermidis, Klebsiella pneumoniae, Escherichia coli, and Pseudomonas aeruginosa were grown in 10 ml BHI broth aerobically for 18 h. Bacterial culture (500 µl) was then diluted to 1.5 ml fresh BHI broth. […] The stock was diluted in a series of two-fold dilutions ranging from 0.5 to 512 µg/ml in sterile BHI broth in microtiter wells. Each well of the 96-well microtiter plate was then inoculated with 190 µl of standardized cell suspension (10^5 CFU/ml) and incubated at 37 °C for next 18 h along with the 20 µl sCur suspension. The MIC was defined as the lowest concentration of sCur at which no obvious growth was observed.

[6] = test system: multi-drug resistant K. pneumoniae and S. aureus isolates; experiment: DiSC3-5 steady-state fluorimetry, membrane depolarization; assay type: cell-based, Klebsiella pneumoniae and Staphylococcus aureus; details: 8 µg/ml sCur with 16 µg/ml vancomycin, 120 min; vancomycin alone; untreated 18.67 ± 2.082
Method: as §6

Klebsiella pneumoniae [7] = experiment: DPH flow cytometry, membrane dynamics; assay type: cell-based; details: 256 µg/ml
Klebsiella pneumoniae [8] = experiment: DCFH-DA flow cytometry, ROS production; assay type: cell-based; details: single agents, time not stated; untreated 0.1%
[9] = test system: Klebsiella pneumoniae (10,825/2019); experiment: MIC/MBC, broth micro-dilution; assay type: cell-based; details: for MIC: 18 h
Method: as §3, §4

[10] = test system: Staphylococcus aureus (MRSA, 2,862/2019); experiment: MIC/MBC, broth micro-dilution; assay type: cell-based; details: for MIC: 18 h
Method: as §3, §4

[11] = test system: Pseudomonas aeruginosa (2,412/2019); experiment: MIC/MBC, broth micro-dilution; assay type: cell-based; details: for MIC: 18 h
Method: as §3, §4

[12] = test system: Escherichia coli (507/2019); experiment: MIC/MBC, broth micro-dilution; assay type: cell-based; details: for MIC: 18 h
Method: as §3, §4

[13] = test system: Staphylococcus aureus (MRSA, 2,862/2019); experiment: microbe, parasite or virus in culture
Method: as §2

[14] = test system: S. aureus and K. pneumoniae cells; experiment: Hydroxyl radical estimation with HPF dye; assay type: cell-based, Staphylococcus aureus and Klebsiella pneumoniae; details: one hour treatment, compared to untreated cells
Method: The fluorescent reporter dye 3′-(p-hydroxyphenyl) fluorescein (HPF) was used for […] free radical detection as described previously. Overnight cultures were diluted 1:250 with 25 ml of BHI broth in 250 ml flasks and incubated at 37 °C, with shaking (200 rpm). Cells were grown until they reached the OD600 ~ 0.3. Five hundred microliters sample was taken from the flasks and transferred to an 8-well plate for treatments. […] The supernatant was exchanged with phosphate buffered saline supplemented with […] HPF with incubation in the dark at room temperature for 15 min and re-pelleted by centrifugation at 10,000 rpm. The supernatant was removed and replaced with 1 × PBS for fluorimetry measurements.

[15] = test system: Pseudomonas aeruginosa (ATCC25619); experiment: MIC/MBC, broth micro-dilution; assay type: cell-based; details: for MIC: ATCC25619, 18 h
Method: as §3
(§5) Briefly, Staphylococcus aureus, Staphylococcus epidermidis, Klebsiella pneumoniae, Escherichia coli, and Pseudomonas aeruginosa were grown in 10 ml BHI broth aerobically for 18 h. Bacterial culture (500 µl) was then diluted to 1.5 ml fresh BHI broth. The sCur stock solution (1,024 µg/ml) was used for the study. The stock was diluted in a series of two-fold dilutions ranging from 0.5 to 512 µg/ml in sterile BHI broth in microtiter wells. Each well of the 96-well microtiter plate was then inoculated with 190 µl of standardized cell suspension (10^5 CFU/ml) and incubated at 37 °C for next 18 h along with the 20 µl sCur suspension. The MIC was defined as the lowest concentration of sCur at which no obvious growth was observed. Positive controls were having either ciprofloxacin or meropenem (for gram positive and gram negative respectively) while the sterile broth served as negative control and all the experiments were performed in triplicate.

[16] = test system: Staphylococcus aureus (ATCC29213); experiment: MIC/MBC, broth micro-dilution; assay type: cell-based; details: for MIC: ATCC29213, 18 h
Method: as §3, §5

[17] = test system: Klebsiella pneumoniae (ATCC700603); experiment: MIC/MBC, broth micro-dilution; assay type: cell-based; details: for MIC: ATCC700603, 18 h
Method: as §3, §5

[18] = test system: Escherichia coli (ATCC25922); experiment: MIC/MBC, broth micro-dilution; assay type: cell-based; details: for MIC: ATCC25922, 18 h
Method: as §3, §5

[19] = test system: Staphylococcus epidermidis (ATCC35984); experiment: MIC/MBC, broth micro-dilution; assay type: cell-based; details: for MIC: ATCC35984, 18 h
Method: as §3, §5

[20] = test system: K. pneumoniae clinical isolate; experiment: DPH steady-state fluorimetry, membrane dynamics; assay type: cell-based, Klebsiella pneumoniae; details: vancomycin alone; sCur at MIC alone 120 min; 8 µg/ml sCur with 16 µg/ml vancomycin 60 min; untreated 93.44 ± 2.646
Method: as §1

[21] = antibiotic with native curcumin (8 µg/ml)

## CN[C@H](CC(C)C)C(=O)N[C@H]1C(=O)N[C@@H](CC(N)=O)C(=O)N[C@H]2C(=O)N[C@H]3C(=O)N[C@H](C(=O)N[C@H](C(=O)O)c4cc(O)cc(O)c4-c4cc3ccc4O)[C@H](O)c3ccc(c(Cl)c3)Oc3cc2cc(c3O[C@@H]2O[C@H](CO)[C@@H](O)[C@H](O)[C@H]2O[C@H]2C[C@](C)(N)[C@H](O)[C@H](C)O2)Oc2ccc(cc2Cl)[C@H]1O [Vancomycin, vancomycin]
Klebsiella pneumoniae [1]
  right shifting of the population, DiSC3-5: 0.6%
MRSA clinical isolate
  DPH fluorescence intensity: 84.24 ± 1.875 a.u.
[2]; [21]
  modified MIC: 512 µg/mL
[2]; antibiotic with sCur (8 µg/ml)
  modified MIC: 16 µg/mL
[3]; [21]
  modified MIC: 1024 µg/mL
[3]; antibiotic with sCur (8 µg/ml)
  modified MIC: 16 µg/mL
[4]; [21]
  modified MIC: 512 µg/mL
[4]; antibiotic with sCur (8 µg/ml)
  modified MIC: 8 µg/mL
[5]
  MIC: 512 µg/mL (≈ 353 µM)
[6]
  DiSC3-5 fluorescence intensity: 32.07 ± 5.224 a.u.
Klebsiella pneumoniae [7]
  right shifting of the population, DPH: mild right shifting
Klebsiella pneumoniae [8]
  cell population that took up DCFDA, ROS generation (gate M3): 38.6%
[9]
  MBC: ≥ 1020 µg/mL
  MIC: 512 µg/mL (≈ 353 µM)
[10]
  MBC: 2 µg/mL (≈ 1.38 µM)
  MIC: 1 µg/mL (≈ 0.69 µM)
[11]
  MBC: ≥ 1020 µg/mL
  MIC: 1020 µg/mL (≈ 707 µM)
[12]
  MBC: ≥ 1020 µg/mL
  MIC: 512 µg/mL (≈ 353 µM)
[13]; read-out: Modified MIC
  MIC: 1 µg/mL (≈ 0.69 µM)
[13]; read-out: modified MIC
  MIC: 0.25 µg/mL (≈ 0.173 µM)
[14]
  HPF fluorescence, OH radical production: fair increase in the fluorescence
[15]; ATCC25619
  MBC: ≥ 1020 µg/mL
[15]
  MIC: 1020 µg/mL (≈ 707 µM)
[16]; ATCC29213
  MBC: 2 µg/mL (≈ 1.38 µM)
[16]
  MIC: 0.5 µg/mL (≈ 0.345 µM)
[17]; ATCC700603
  MBC: ≥ 1020 µg/mL
[17]
  MIC: 256 µg/mL (≈ 177 µM)
[18]; ATCC25922
  MBC: ≥ 1020 µg/mL
[18]
  MIC: 256 µg/mL (≈ 177 µM)
[19]; ATCC35984
  MBC: 1 µg/mL (≈ 0.69 µM)
[19]
  MIC: 0.25 µg/mL (≈ 0.173 µM)
[20]
  DPH fluorescence intensity: 89.21 ± 2.614 a.u.

## COc1cc(/C=C/C(=O)CC(=O)/C=C/c2ccc(O)c(OC)c2)ccc1O [Curcumin, curcumin]
Klebsiella pneumoniae [1]
  right shifting of the population, DiSC3-5: 35%
Klebsiella pneumoniae [7]
  right shifting of the population, DPH: significant right shifting
[9]; read-out: MIC
  MIC: 512 µg/mL (≈ 1390 µM)
[9]; read-out: MBC
  MBC: ≥ 1020 µg/mL
[10]; read-out: MIC
  MIC: 256 µg/mL (≈ 695 µM)
[10]; read-out: MBC
  MBC: ≥ 1020 µg/mL
[11]; read-out: MIC
  MIC: ≥ 1020 µg/mL
[11]; read-out: MBC
  MBC: ≥ 1020 µg/mL
[12]; read-out: MIC
  MIC: 512 µg/mL (≈ 1390 µM)
[12]; read-out: MBC
  MBC: ≥ 1020 µg/mL
[15]; read-out: MIC
  MIC: 512 µg/mL (≈ 1390 µM)
[15]; ATCC25619, read-out: MBC
  MBC: ≥ 1020 µg/mL
[16]; read-out: MIC
  MIC: 128 µg/mL (≈ 347 µM)
[16]; ATCC29213, read-out: MBC
  MBC: ≥ 1020 µg/mL
[17]; read-out: MIC
  MIC: 256 µg/mL (≈ 695 µM)
[17]; ATCC700603, read-out: MBC
  MBC: ≥ 1020 µg/mL
[18]; read-out: MIC
  MIC: 256 µg/mL (≈ 695 µM)
[18]; ATCC25922, read-out: MBC
  MBC: ≥ 1020 µg/mL
[19]; read-out: MIC
  MIC: 128 µg/mL (≈ 347 µM)
[19]; ATCC35984, read-out: MBC
  MBC: ≥ 1020 µg/mL

## C[C@@H](O)[C@H]1C(=O)N2C(C(=O)O)=C(S[C@@H]3CN[C@H](C(=O)N(C)C)C3)[C@H](C)[C@H]12 [Meropenem, meropenem]
[2]; antibiotic with sCur (8 µg/ml)
  modified MIC: 2 µg/mL
[3]; antibiotic with sCur (8 µg/ml)
  modified MIC: 4 µg/mL
[4]; [21]
  modified MIC: 64 µg/mL
[4]; antibiotic with sCur (8 µg/ml)
  modified MIC: 1 µg/mL
[9]; read-out: MBC
  MBC: 256 µg/mL (≈ 668 µM)
[11]; read-out: MBC
  MBC: 256 µg/mL (≈ 668 µM)
[12]; read-out: MIC
  MIC: 64 µg/mL (≈ 167 µM)
[15]; read-out: MIC
  MIC: 0.5 µg/mL (≈ 1.3 µM)
[15]; ATCC25619, read-out: MBC
  MBC: 1 µg/mL (≈ 2.61 µM)
[17]; read-out: MIC
  MIC: 0.5 µg/mL (≈ 1.3 µM)
[17]; ATCC700603, read-out: MBC
  MBC: 1 µg/mL (≈ 2.61 µM)
[18]; read-out: MIC
  MIC: 0.25 µg/mL (≈ 0.652 µM)
[18]; ATCC25922, read-out: MBC
  MBC: 1 µg/mL (≈ 2.61 µM)

## O=C(O)c1cn(C2CC2)c2cc(N3CCNCC3)c(F)cc2c1=O [Ciprofloxacin, ciprofloxacin]
[5]; MDR isolates, antibiotics alone, read-out: MIC
  MIC: 64 µg/mL (≈ 193 µM)
[9]; read-out: MBC
  MBC: 128 µg/mL (≈ 386 µM)
[10]; read-out: MBC
  MBC: 64 µg/mL (≈ 193 µM)
[11]; read-out: MBC
  MBC: 256 µg/mL (≈ 773 µM)
[12]; read-out: MBC
  MBC: 64 µg/mL (≈ 193 µM)
[15]; read-out: MIC
  MIC: 0.5 µg/mL (≈ 1.51 µM)
[15]; ATCC25619, read-out: MBC
  MBC: 1 µg/mL (≈ 3.02 µM)
[16]; read-out: MIC
  MIC: 0.25 µg/mL (≈ 0.754 µM)
[16]; ATCC29213, read-out: MBC
  MBC: 0.5 µg/mL (≈ 1.51 µM)
[17]; read-out: MIC
  MIC: 0.5 µg/mL (≈ 1.51 µM)
[17]; ATCC700603, read-out: MBC
  MBC: 1 µg/mL (≈ 3.02 µM)
[18]; read-out: MIC
  MIC: 0.25 µg/mL (≈ 0.754 µM)
[18]; ATCC25922, read-out: MBC
  MBC: 0.5 µg/mL (≈ 1.51 µM)
[19]; read-out: MIC
  MIC: < 0.25 µg/mL
[19]; ATCC35984, read-out: MBC
  MBC: 0.5 µg/mL (≈ 1.51 µM)
